The test system of one assay is MMP1. Briefly: Metalloproteinase in culture media after cigarette smoke extract stress (ELISA). Type of assay: cell-based, human. As to conditions: Trolox 500 μM. Here is the method:
Human dermal fibroblasts are cultured until confluence. Then cells are contacted with or without the test products during 24 hours. Then cells are stressed with an extract of cigarette smoke with or without the test products. After a last incubation with or without the test products, metallo-proteinases MMP1 and MMP2 present in the culture media are measured by ELISA and reduced to the number of cells (evaluated with the Hoescht reagent).
(In an ELISA, binding on a coated surface is turned into a signal by an enzyme label.)

The test system of another assay is Fibroblasts. The assay is described as follows: Accumulation of lipofuscin AGE-pigment (dityrosine marker). Type of assay: cell-based, human. Particulars: Trolox 500 μM; p < 0.01. The text has this:
Principle and protocol: MGO is indirectly involved in the production of another group of toxins called lipofuscin. This pigment, which is seen on skin sections, is yellow in colour. It is poorly characterised as it is formed from an aggregate of different damaged cell components. Reduced functioning of the proteasome allows it to accumulate. Glycation (and therefore alteration) of the proteasome promotes the accumulation of this toxic pigment.
The same “fatiguing” cell stress as above in point 2a was used, alternating two rest periods (+/− of Albizia Julibrissin extract) and 2 periods of stress (+/− the Albizia Julibrissin extract with 500 μM microns of MGO). At the end of the second glycating stress, a dosage of the lipofuscin marker, the dityrosine was performed on the cell and reduced to the number of cells.

Assay [1] deals with human dermal fibroblasts (HDF). Briefly: Measurement of carboxymethyl-lysine (CML) released by fibroblasts after MGO glycating stress (Elisa). Type of assay: cell-based. As to conditions: aminoguanidine 0.03%; p < 0.01. The method, then: For the tests achieved on cell cultures, a hydro-glycolic extract obtained according to Example A) above comprising 2% of albizine was used at 0.006% diluted in aqueous excipients, of the type of cell culture media.
Principle and protocol: CML, a specific type of AGEs, accumulates during time in particular on the dermis proteins synthesized by fibroblasts. In vitro, on fibroblasts in culture, it is possible to accelerate this phenomenon by a glycating stress.
500 μM of methylglyoxal (MGO) were applied to confluent human dermal fibroblasts (HDF) to provoke AGE formation. After this glycating contact at 37° C. during 4 days, the MGO was removed from the cultures by rinsing and the Albizia Julibrissin extract was applied for 5 days. The supernatants were then removed for Elisa measurement of CML released by the fibroblasts. Cells were counted in parallel from the cell layers. Two independent tests were performed.

A further assay has as its system soluble bovine elastin. Briefly: Non enzymatic glycation of elastin with fructose (fluorescence). Type of assay: biochemical. Here is the method:
Non-enzymatic glycation occurring between a protein and a reducing sugar like fructose or glucose is a spontaneous and slow reaction that can be accelerated by heat. In this test, the protein is soluble bovine elastin and the reducing sugar is fructose. They are incubated with or without test products at 50° C. for 9 days. Final products resulting from glycation may be quantified by fluorescence (λex=360 nm and λem=460 nm).

For the molecule `Cc1c(C)c2c(c(C)c1O)CCC(C)(C(=O)O)O2` (stereo not drawn) [Trolox], the MMP1 in the assay with MMP1 (control stress 9200 +/− 1590) is recorded as 3962 +/− 759 ng/10^6 cells. Further, the “% change in MMP1 vs. control stress” value in the assay with MMP1 (p < 0.05) is −57%; p < 0.05. Also, the “% change in dityrosine, positive MGO control” value in the assay on Fibroblasts was “*AFU: Arbitrary fluorescence unit; positive MGO control: Trolox 500 μM: −61.1% (p < 0.01)”.
On to `N=C(N)NN` [aminoguanidine], for which the “% change in CML, positive control” value in assay [1] is “Positive control aminoguanidine 0.03%; −41% CML; (p < 0.01)”. Further, the “% change in glycation vs. control” value in the assay with soluble bovine elastin (aminoguanidine 0.03%, p < 0.01) is reported as “Aminoguanidine 0.03%: −99%; p < 0.01”.
For Darutoside, the Glycation with soluble bovine elastin (15 ppm (combination: 15 ppm Darutoside + 15 ppm extract), elastin + fructose, 50° C., 9 days, control 6096 +/− 438) is given as 5843 +/− 383 UFA.

The values above are taken from US9737476B2, “Cosmetic use of an albizia julibrissin extract and corresponding topical composition” (Sederma, priority 2011, dated 2017).
